Measured values as given in ChEMBL document CHEMBL5038569, “Targeting RECQL5 Functions, by a Small Molecule, Selectively Kills Breast Cancer in Vitro and in Vivo” (J Med Chem, 2021).
The source made the active and inactive calls. The calls are words filed in the database; no cut-off is given here.

Tests used:
[1] = Chronic toxicity in […] mouse assessed as change in body weight at 100 mg/kg, po administered as single dose via gavage measured for 30 days; type: organism-based; settings: in vivo, 720 h, time 30 day
MCF7 [2] = assay: Reversal of RECQL5 knock out resistance phenotype in human MCF7 cells expressing RECQL5-RFP assessed as reduction in cell viability at 6 to 25 uM measured after 72 hrs by MTT assay; type: functional, cell-based; settings: dose 6-25 µM
MCF7 [3] = assay: Effect on homologous recombinant repair in human MCF7 cells expressing wild type RECQL5 assessed as accumulation of MRE11 protein on chromatin at 20 uM incubated for 4 to 24 hrs by Western blot analysis; type: functional, cell-based; settings: time 4-24 hrs, TDE = time-dependent effect
MCF7 [4] = assay: Induction of DNA damage in human MCF7 cells expressing wild type RECQL5 assessed as double strand breaks by measuring increase in phosphorylation of ATR at S428 residue at 20 uM measured up to 24 hrs by Western blot analysis; type: functional, cell-based; settings: time hrs <=24
MCF7 [5] = assay: Antitumor activity against RECQL5 knock out human MCF7 cells xenografted in nude mouse assessed as reduction in tumor growth at 50 mg/kg, po administered as single dose via gavage measured after 30 days; type: functional, organism-based; settings: time 30.0 day
[6] = Drug concentration in nude mouse serum at 50 mg/kg, po administered alternative days via gavage and measured upto 4 hrs by HPLC analysis; type: ADME, organism-based; settings: read-out: Drug uptake

O=C(Nc1cc(C(F)(F)F)cc(C(F)(F)F)c1)N[C@@H](c1ccccc1)c1nnc(SCc2ccccc2)o1
Activity [1]: Non-Toxic | Activity (MCF7 [2]): Active | Activity (MCF7 [3]): Tde | Activity (MCF7 [4]): Active | Activity (MCF7 [5]): inactive | concentration at 4 h [6]: 14.8 µM
